Data on nine compounds can be found in ChEMBL document CHEMBL1201862, “PubChem BioAssay data set” (2004).

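In this assay, cells in 96-well plates receive the compound at five concentrations for 48 hours. Endpoints are linearly interpolated between the surrounding concentrations. GI50 marks 50% less growth.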 Activity calls are given as the source filed them. Rule as the data show it: active = GI50 up to about 1.1 µM and inactive = higher.

Among the test systems are UACC-257; UACC-62; A549; COLO 205; NCI-H460; KM-20L2; SK-MEL-2; HT-29; LOX IMVI; K562; CCRF-CEM; SF-268; OVCAR-5; SK-MEL-5; MCF7; DU-145; T47D; MDA-MB-435; Hs-578T.
What all share (test): inhibition of tumour cell growth, NCI panel, 48 h

As to `C=C(CS(=O)(=O)c1ccccc1)C(=O)OCC`, the GI50 was 12.8 µM (inactive) in the test with UACC-257; 4.74 µM (inactive) with UACC-62; 18.5 µM (inactive) in the test on A549; 18.9 µM (inactive) with COLO 205; 18.7 µM (inactive) with NCI-H460; 21.8 µM (inactive) in the test with KM-20L2. Besides, the GI50 in the test on SK-MEL-2 is 15.6 µM (inactive); in the test with HT-29, 11.2 µM (inactive); in the test on LOX IMVI, 10.5 µM (inactive); in the test with K562, 5.33 µM (inactive); with CCRF-CEM, 2.77 µM (inactive); in the test with SF-268, 19.6 µM (inactive). The GI50 in the test on OVCAR-5 is 19.6 µM (inactive).

On to `Cc1nc2sccn2c1C(=O)N/N=C1\SCC(=O)N1C`, for which the GI50 in the test on UACC-257, in the test on UACC-62, in the test on A549, in the test on COLO 205, in the test on NCI-H460 and in the test on KM-20L2 was > 100 µM (inactive) throughout. Besides, the GI50 in the test on SK-MEL-2, in the test on HT-29, in the test with LOX IMVI, with K562, with CCRF-CEM and with SF-268 was > 100 µM (inactive) throughout. For the same compound, the GI50 in the test with SK-MEL-5 and with OVCAR-5 was > 100 µM (inactive) throughout.

`CC1(C)OC2C(CCP(=O)(O)O)OC(c3nc(C(N)=O)cs3)C2O1` (stereo not drawn): the GI50 in the test with UACC-257, with UACC-62, in the test on A549, with COLO 205, in the test with NCI-H460 and with KM-20L2 was > 100 µM (inactive) each time. Also, the GI50 in the test on SK-MEL-2, with HT-29, with LOX IMVI, in the test on K562, in the test with CCRF-CEM and in the test on SF-268 was > 100 µM (inactive) in each case. The GI50 in the test on OVCAR-5 is > 100 µM (inactive).

Regarding `Cc1cc(=O)oc2c(CNC(Cc3ccccc3)C(=O)O)c(O)ccc12` (stereo not drawn), the GI50 in the test on UACC-257, in the test with UACC-62, with A549, in the test on COLO 205, with MCF7 and in the test with NCI-H460 was > 100 µM (inactive) each time. Further, the GI50 in the test on SK-MEL-2, in the test on HT-29, with DU-145, with LOX IMVI, in the test with K562 and with T47D was > 100 µM (inactive) throughout. The GI50 in the test with MDA-MB-435, in the test on CCRF-CEM, with SF-268, in the test with SK-MEL-5, in the test on Hs-578T and with OVCAR-5 was > 100 µM (inactive) throughout.

For the compound `COC(=O)c1ccc(C)cc1CC1Cc2cccc(C)c2C1=O` (stereo not drawn), the GI50 in the test with UACC-257 was 11.7 µM (inactive); in the test with UACC-62 it was 9.57 µM (inactive); in the test with A549, 6.58 µM (inactive); in the test with COLO 205, 4.9 µM (inactive); with MCF7 it was 2.38 µM (inactive); with NCI-H460, 4.89 µM (inactive). In addition, the GI50 in the test with SK-MEL-2 was 4.34 µM (inactive); in the test with HT-29, 2.42 µM (inactive); in the test with DU-145, 11.9 µM (inactive); with LOX IMVI, 2.88 µM (inactive); in the test on K562, 2.77 µM (inactive); in the test on T47D, 5.85 µM (inactive). Further, the GI50 with MDA-MB-435 is 1.48 µM (inactive); in the test on CCRF-CEM it was 4.73 µM (inactive); in the test with SF-268, 7.98 µM (inactive); in the test on SK-MEL-5, 3.59 µM (inactive); with Hs-578T, 9.77 µM (inactive); in the test with OVCAR-5 it was 14 µM (inactive).

With `CNC(=S)/C(=N\Nc1[nH]cnc1C(N)=O)C(N)=S`, the GI50 with UACC-257 was 9.62 µM (inactive); in the test on UACC-62, 3.22 µM (inactive); in the test on A549 it was > 84.1 µM (inactive); in the test with COLO 205, 4.57 µM (inactive); in the test with MCF7, 16.5 µM (inactive); in the test on NCI-H460, 5.31 µM (inactive). For the same compound, the GI50 in the test on SK-MEL-2 is 0.875 µM (active); in the test on HT-29, 16.1 µM (inactive); in the test on DU-145, 1.2 µM (inactive); in the test on LOX IMVI it was 0.598 µM (active); with K562 it was 0.444 µM (active); with T47D, 11.6 µM (inactive). The GI50 in the test on MDA-MB-435 was 7.03 µM (inactive); in the test on CCRF-CEM, 0.689 µM (active); in the test with SF-268 it was 3.18 µM (inactive); in the test with SK-MEL-5 it was 11.5 µM (inactive); in the test on Hs-578T it was 9.14 µM (inactive); in the test on OVCAR-5, > 31.6 µM (inactive).

In the case of `COc1ccccc1C(O)[C@@H]1C[C@@H]2[C@H]3CC[C@@](C)([C@@H]2O1)C3(C)C` (stereo partly drawn), the GI50 is 20.3 µM (inactive) in the test with UACC-257; 16.6 µM (inactive) in the test with UACC-62; 21.2 µM (inactive) in the test with A549; 19.1 µM (inactive) with COLO 205; 19 µM (inactive) with MCF7; 19.5 µM (inactive) with NCI-H460. The GI50 in the test on SK-MEL-2 was 18.1 µM (inactive); with HT-29 it was 19.4 µM (inactive); in the test on DU-145, 22.1 µM (inactive); in the test on LOX IMVI, 18.4 µM (inactive); in the test on K562, 21.3 µM (inactive); in the test with T47D, 16.4 µM (inactive). The GI50 is 18.5 µM (inactive) in the test with MDA-MB-435; 20.8 µM (inactive) with CCRF-CEM; 22.9 µM (inactive) in the test with SF-268; 17.3 µM (inactive) in the test with SK-MEL-5; 14.7 µM (inactive) in the test with Hs-578T; 19.5 µM (inactive) in the test with OVCAR-5.

Take `CCOc1ccc2c(c1)NC(=O)C(C1OC(c3ccccc3)=CC1=O)S2` (stereo not drawn): the GI50 in the test with UACC-257 is 56.5 µM (inactive); in the test on UACC-62, 15 µM (inactive); in the test on A549 it was 17.3 µM (inactive); in the test with COLO 205 it was 14 µM (inactive); in the test on MCF7 it was 16.2 µM (inactive); with NCI-H460, 16.3 µM (inactive). The GI50 in the test with SK-MEL-2 is 40.1 µM (inactive); with HT-29, 20.2 µM (inactive); in the test with DU-145 it was 38.5 µM (inactive); in the test with LOX IMVI it was 23.2 µM (inactive); in the test with K562, 24.2 µM (inactive); with T47D, 15.8 µM (inactive). Moreover, the GI50 in the test on MDA-MB-435 was 18.5 µM (inactive); in the test on CCRF-CEM it was 1.9 µM (inactive); in the test with SF-268, 27.5 µM (inactive); with SK-MEL-5, 18.8 µM (inactive); in the test on Hs-578T, 27.5 µM (inactive); in the test on OVCAR-5, 16.1 µM (inactive).

`CCOC(=O)NC(Nc1ccc(S(=O)(=O)Nc2ncccn2)cc1)(C(=O)OCC)C(F)(F)F` (stereo not drawn): the GI50 is > 100 µM (inactive) in the test on UACC-257; > 100 µM (inactive) in the test on UACC-62; > 100 µM (inactive) in the test on A549; > 100 µM (inactive) with COLO 205; 0.279 µM (active) in the test on MCF7; > 100 µM (inactive) in the test with NCI-H460. In addition, the GI50 in the test with SK-MEL-2, in the test with HT-29, with DU-145, in the test with LOX IMVI, in the test with K562 and in the test with T47D was > 100 µM (inactive) throughout. The GI50 in the test on MDA-MB-435, in the test on CCRF-CEM, in the test with SF-268, in the test with SK-MEL-5, with Hs-578T and with OVCAR-5 was > 100 µM (inactive) in each case.
